Source: patent US8575135B2 (Gilead Sciences, Inc., priority 2011, dated 2013)
Where two headings read alike, the source gives them in different places.

Key:
Assay in all cases: microbe, parasite or virus in culture
Conditions in all cases: Hepatitis C virus
[1] = test system: stable HCV 1a RLuc replicon cells (genotype 1a H77 replicon); assay type: cell-based
[2] = test system: stable HCV 1b RLuc replicon cells (genotype 1b Con1 replicon); assay type: cell-based
[3] = test system: stable HCV 2a JFH-1 Rluc replicon cells (L31 present in NS5A); assay type: cell-based
[4] = test system: NS5A chimeric genotype 2a JFH-1 replicon with genotype 2a J6 strain NS5A gene (M31 present); assay type: cell-based, HCV
[5] = test system: NS5A chimeric genotype 2a JFH-1 replicon with genotype 2b MD2b-1 strain NS5A gene (M31 present); assay type: cell-based, HCV
Method in brief: (§1)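 Con1-based 3a and 4a chimeras carried a Pi-RLuc reporter and were transiently transfected into Huh-Lunet cells; the JFH-1-based 2b chimera (RLuc-Neo) was used transiently or as stable replicon cells.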

[6] = test system: NS5A chimeric genotype 1b Con1 replicon with genotype 3a S52 strain NS5A gene; assay type: cell-based, HCV
Method in brief: as §1

[7] = test system: NS5A chimeric genotype 1b Con1 replicon with genotype 4a ED43 strain NS5A gene; assay type: cell-based, HCV
[8] = test system: 1a Pi-Rluc replicon with Q30R in genotype 1a NS5A; assay type: cell-based, HCV
Method in brief: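 Renilla luciferase replicon assay: 1a Pi-RLuc replicon carrying NS5A Q30R, transfected transiently into cured-51 (Huh-7-derived) cells.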

| SMILES | EC50 ([1]; read-out: 1a) [nM] | EC50 ([1]; read-out: 1a (nM)) [nM] | EC50 ([2]; read-out: 1b (nM)) [nM] | EC50 ([3]; read-out: 2a JFH) [nM] | EC50 ([3]; read-out: 2a JFH (nM)) [nM] | EC50 ([4]; read-out: 2a J6) [nM] | EC50 ([4]; read-out: 2a Jb (t) (nM)) [nM] | EC50 ([5]; read-out: 2b) [nM] | EC50 ([5]; read-out: 2b (t) (nM)) [nM] | EC50 ([5]; read-out: 2b (s) (nM)) [nM] | EC50 ([7]; read-out: 4a) [nM] | EC50 ([7]; read-out: 4a (s) (nM)) [nM] | further results |
| --- | --- | --- | --- | --- | --- | --- | --- | --- | --- | --- | --- | --- | --- |
| CCC(C)[C@H](NC(=O)OC)C(=O)N1C[C@@H](C)CC1c1ncc(-c2ccc3c(c2)COc2cc4c(ccc5nc([C@@H]6CC(COC)CN6C(=O)[C@@H](NC(=O)OC)C(C)C)[nH]c54)cc2-3)[nH]1 (stereo in doubt) [Example QC, Methyl {(2S)-1-[(2S,4S)-2-(9-{2-[(2S,4S)-1-{(2S,3R)-2-[(methoxycarbonyl)amino]-3-methylpentanoyl}-4-methylpyrrolidin-2-yl]-1H-imidazol-5-yl}-1,11-dihydroisochromeno[4′,3′:6,7]naphtho[1,2-d]imidazol-2-yl)-4-(methoxymethyl)pyrrolidin-1-yl]-3-methyl-1-oxobutan-2-yl}carbamate] | < 1 | 0.012 | 0.014 | < 1 | 0.008 | < 1 | 0.157 | < 1 | 0.317 | – | – | – | – |
| CCC(C)[C@H](NC(=O)OC)C(=O)N1C[C@@H](C)CC1c1ncc(-c2ccc3c(c2)COc2cc4c(ccc5nc([C@@H]6CC(COC)CN6C(=O)[C@@H](NC(=O)OC)C(C)OC)[nH]c54)cc2-3)[nH]1 (stereo in doubt) [Example QD, Methyl {(2S,3R)-1-[(2S,4S)-2-(5-{2-[(2S,4S)-1-[N-(methoxycarbonyl)-O-methyl-L-allothreonyl]-4-(methoxymethyl)pyrrolidin-2-yl]-1,11-dihydroisochromeno[4′,3′:6,7]naphtho[1,2-d]imidazol-9-yl}-1H-imidazol-2-yl)-4-methylpyrrolidin-1-yl]-3-methyl-1-oxopentan-2-yl}carbamate] | < 1 | 0.025 | 0.03 | < 1 | 0.013 | < 1 | 0.103 | < 1 | 0.193 | – | – | – | – |
| CCC(C)C(NC(=O)OC)C(=O)N1CC(COC)C[C@H]1c1nc2ccc3cc4c(cc3c2[nH]1)OCc1cc(-c2cnc(C3C[C@H](C)CN3C(=O)[C@@H](NC(=O)OC)C(C)CC)[nH]2)ccc1-4 (stereo in doubt) [Example QE, Methyl {(3R)-1-[(2S,4S)-2-(9-{2-[(2S,4S)-1-{(2S,3R)-2-[(methoxycarbonyl)amino]-3-methylpentanoyl}-4-methylpyrrolidin-2-yl]-1H-imidazol-5-yl}-1,11-dihydroisochromeno[4′,3′:6,7]naphtho[1,2-d]imidazol-2-yl)-4-(methoxymethyl)pyrrolidin-1-yl]-3-methyl-1-oxopentan-2-yl}carbamate] | < 1 | 0.013 | 0.015 | < 1 | 0.011 | < 1 | 0.291 | < 1 | 0.563 | – | – | – | – |
| COC(=O)N[C@H](C(=O)N1CCC[C@H]1c1ncc(-c2ccc3c(c2)COc2cc4c(ccc5nc([C@@H]6CCCN6C(=O)[C@H](NC(=O)C6CC6)c6ccccc6)[nH]c54)cc2-3)[nH]1)C(C)C [Compound 516] | < 1 | 0.015 | 0.024 | < 1 | 0.009 | < 1 | – | < 1 | – | 0.013 | < 1 | 0.025 | EC50 ([6]; read-out: 3a): < 1 nM; EC50 ([6]; read-out: 3a (nM)): 0.005 nM; EC50 ([4]; read-out: 2a J6 (s) (nM)): 0.043 nM; EC50 ([7]; read-out: 4a (t) (nM)): 0.01 nM |
| COC[C@H]1C[C@@H](c2nc3ccc4cc5c(cc4c3[nH]2)OCc2cc(-c3cnc([C@@H]4CC[C@H](C)N4C(=O)[C@@H](NC(=O)OC)[C@@H](C)OC)[nH]3)ccc2-5)N(C(=O)[C@@H](NC(=O)OC)[C@@H](C)OC)C1 [Compound 646] | – | – | – | – | – | – | – | – | – | – | – | – | EC50 ([1]; read-out: 1a (nM) EC50): 0.058 nM; EC50 ([1]; read-out: 1a EC50 range): < 1 nM; EC50 ([2]; read-out: 1b (nM) EC50): 0.109 nM; EC50 ([3]; read-out: 2a JFH (nM) EC50): 0.03 nM; EC50 ([3]; read-out: 2a JFH EC50 range): < 1 nM; EC50 ([4]; read-out: 2a J6 EC50 range): < 1 nM; EC50 ([4]; read-out: 2a Jb (t) (nM) EC50): 0.042 nM; EC50 ([5]; read-out: 2b (s) (nM) EC50): 0.262 nM; EC50 ([5]; read-out: 2b (t) (nM) EC50): 0.112 nM; EC50 ([5]; read-out: 2b EC50 range): < 1 nM; EC50 ([7]; read-out: 4a (s) (nM) EC50): 0.034 nM; EC50 ([7]; read-out: 4a EC50 range): < 1 nM |
| COC(=O)N[C@H](C(=O)N1[C@@H]2C[C@@H]2C[C@H]1c1ncc(-c2ccc3c(c2)COc2cc4c(ccc5nc([C@@H]6C[C@H](COC(F)F)CN6C(=O)[C@H](NC(=O)OC)c6ccccc6)[nH]c54)cc2-3)[nH]1)C(C)C [Example MW] | < 1 | 0.012 | 0.026 | < 1 | 0.012 | < 1 | 0.02 | < 1 | 0.043 | 0.123 | < 1 | 0.011 | – |
| COC[C@H]1C[C@@H](c2nc3ccc4cc5c(cc4c3[nH]2)OCc2cc(-c3cnc([C@@H]4C[C@H](C)CN4C(=O)[C@@H](NC(=O)OC)[C@@H](C)OC)[nH]3)ccc2-5)N(C(=O)[C@@H](NC(=O)OC)[C@@H](C)OC)C1 [Example NK, Methyl {(2S,3R)-3-methoxy-1-[(2S,4S)-2-[9-(2-{(2S,4S)-1-[N-(methoxycarbonyl)-O-methyl-L-threonyl]-4-methylpyrrolidin-2-yl}-1H-imidazol-5-yl)-1,11-dihydroisochromeno[4′,3′:6,7]naphtho[1,2-d]imidazol-2-yl]-4-(methoxymethyl)pyrrolidin-1-yl]-1-oxobutan-2-yl}carbamate] | < 1 | 0.049 | 0.081 | < 1 | 0.018 | < 1 | 0.056 | < 1 | 0.154 | – | – | – | – |
| COC(=O)N[C@H](C(=O)N1[C@@H](C)CC[C@H]1c1ncc(-c2ccc3c(c2)COc2cc4c(ccc5nc([C@@H]6C[C@H](C)CN6C(=O)[C@@H](NC(=O)OC)[C@@H](C)OC)[nH]c54)cc2-3)[nH]1)C(C)C [Example NL, Methyl {(2S)-1-[(2S,5S)-2-(5-{2-[(2S,4S)-1-{(2S,3R)-3-methoxy-2-[(methoxycarbonyl)amino]butanoyl}-4-methylpyrrolidin-2-yl]-1,11-dihydroisochromeno[4′,3′:6,7]naphtho[1,2-d]imidazol-9-yl}-1H-imidazol-2-yl)-5-methylpyrrolidin-1-yl]-3-methyl-1-oxobutan-2-yl}carbamate] | < 1 | 0.011 | 0.013 | < 1 | 0.007 | < 1 | 0.043 | < 1 | 0.034 | – | – | – | – |
| COC[C@H]1C[C@@H](c2nc3ccc4cc5c(cc4c3[nH]2)OCc2cc(-c3cnc([C@@H]4C[C@H](C(F)(F)F)CN4C(=O)[C@@H](NC(=O)OC)C(C)C)[nH]3)ccc2-5)N(C(=O)[C@H](NC(=O)OC)c2ccccc2)C1 [Example PJ, methyl {(1R)-2-[(2S,4S)-2-(9-{2-[(2S,4S)-1-{(2S)-2-[(methoxycarbonyl)amino]-3-methylbutanoyl}-4-(trifluoromethyl)pyrrolidin-2-yl]-1H-imidazol-5-yl}-1,11-dihydroisochromeno[4′,3′:6,7]naphtho[1,2-d]imidazol-2-yl)-4-(methoxymethyl)pyrrolidin-1-yl]-2-oxo-1-phenylethyl}carbamate] | – | – | – | – | – | – | – | – | – | – | – | – | EC50 ([1]; read-out: 1a (nM) EC50): 0.068 nM; EC50 ([1]; read-out: 1a EC50 range): < 1 nM; EC50 ([2]; read-out: 1b (nM) EC50): 0.088 nM; EC50 ([3]; read-out: 2a JFH (nM) EC50): 0.058 nM; EC50 ([3]; read-out: 2a JFH EC50 range): < 1 nM; EC50 ([4]; read-out: 2a J6 EC50 range): < 1 nM; EC50 ([4]; read-out: 2a Jb (t) (nM) EC50): 0.136 nM; EC50 ([5]; read-out: 2b (s) (nM) EC50): 0.854 nM; EC50 ([5]; read-out: 2b (t) (nM) EC50): 0.335 nM; EC50 ([5]; read-out: 2b EC50 range): < 1 nM; EC50 ([7]; read-out: 4a (s) (nM) EC50): 0.056 nM; EC50 ([7]; read-out: 4a EC50 range): < 1 nM |
| COC(=O)N[C@H](C(=O)N1C[C@@H](COC(F)F)C[C@H]1c1nc2ccc3cc4c(cc3c2[nH]1)OCc1cc(-c2cnc(C3CCCN3C(=O)OC(C)(C)C)[nH]2)ccc1-4)C(C)C (stereo partly drawn) [Example PQ, tert-butyl 2-[5-(2-{(2S,4S)-4-[(difluoromethoxy)methyl]-1-[N-(methoxycarbonyl)-L-valyl]pyrrolidin-2-yl}-1,11-dihydroisochromeno[4′,3′:6,7]naphtho[1,2-d]imidazol-9-yl)-1H-imidazol-2-yl]pyrrolidine-1-carboxylate] | < 1 | 0.014 | 0.014 | < 1 | 0.005 | < 1 | 0.025 | < 1 | 0.032 | 0.057 | < 1 | 0.017 | EC50 ([4]; read-out: 2a J6 (s) (nM)): 0.155 nM; EC50 ([7]; read-out: 4a (t) (nM)): 0.015 nM; EC50 ([8]; read-out: 1a Q30R): < 1 nM; EC50 ([8]; read-out: 1a Q30R (nM)): 0.106 nM |
